Values after ≈ are worked out from the molar mass of the structure shown. Where two headings read alike, the source gives them in different places.
Tests used:
[1] = tested on: human epidermoid carcinoma of the mouth (KB) cells; assay: Cytotoxicity in uninfected treated cultures (HRV type 2 assay)
Method: (§1) The ability of compounds to suppress virus replication and thereby protect cells from HRV-induced CPE was measured using human embryo lung (MRC-5) and human epidermoid carcinoma of the mouth (KB) cells infected with HRV type 1A and HRV type 2, respectively. Cells grown in 96 well tissue culture plates using conventional mammalian tissue culture medium (such as minimum essential medium) supplemented with fetal calf serum were used in an assay essentially similar to that described by Sidwell and Huffman (Applied Microbiology, 22, 797-801 (1971)). Test compounds were dissolved in 100% anhydrous dimethyl sulfoxide and serially diluted in tissue culture medium. The antiviral potency of the test compounds was assessed by exposing replicate tissue culture wells to a selected dilution series of between 6 and 7 compound concentrations in the presence of sufficient test virus to invoke significant CPE over the course of the assay. Control cells were also exposed to identical concentrations of compounds in the absence of virus or were infected with virus under the same conditions but in the absence of compounds. Compounds of established anti-HRV efficacy (enviroxime, ribavirin and pirodavir) were assayed by identical procedures in parallel to the test compounds. Tissue culture media were identically supplemented to maintain cell viability and support viral growth while suppressing bacterial growth over the period of the assay (supplements: 2% fetal calf serum, 0.01% sodium bicarbonate, […] gentamicin, […] magnesium chloride, […] of zinc chloride). […] At this time all infected cultures were examined by eye using a light microscope and CPE scored on a scale of 0 (no CPE) to 4 (maximum CPE). Uninfected treated cultures were similarly scored for cytotoxic effects (eg. cell enlargement, granularity, rounding, detachment). […] As an alternative to a CC50 value, cytoxicity in some cases was expressed as the Minimum Toxic Concentration (MTC).
(§2) Vital dye staining to measure cell viability was also used to quantify CPE and cytotoxic effects. The vital dye technique was based on either neutral red uptake (Modification of the method of McManus, Appl. Environment. Microbiol., 31, 35-38, 1976) or XXT metabolism. After the assay had been scored by eye with the aid of a microscope, 100 1 of neutral red (NR) solution (0.34% NR in phosphate buffered saline (PBS)) was added to each well and mixed gently. The assays were returned to the 37° C. incubator for 2 hours to facilitate uptake of the NR by viable cells. The medium/NR mixture was then aspirated from the surface of the cells, which were washed twice with PBS. 0.25 ml of absolute ethanol containing Sorensen's citrate buffer I, was added with gentle mixing and the assays incubated at room temperature in the dark for 30 minutes to dissolve the NR. NR staining of viable cells was then quantified spectrophotometrically by measuring the colour density of the NR solution using a BioTek EL-309 microplate reader at dual wavelengths of 540 and 405 nm. The differences in the two readings were automatically determined to eliminate background errors. EC50 and CC50 values were determined by regression analysis matching compound concentration to NR staining. The XTT method involved use of a solution of XTT (1 mg/ml in culture media) which was added to each well and the plates incubated at 37° C. for 4 hours. XTT metabolism was measured spectrophotometrically using a similar method to that described above except that the dual wavelengths were 450 nm and 650 nm. EC50 and CC50 values were determined by regression analysis using a similar method to that described above.
(§3) Selectivity indices (SI) are the CC50 or MTC divided by the EC50.

[2] = tested on: human embryo lung (MRC-5) cells; assay: Cytotoxicity in uninfected treated cultures (HRV type 1A assay); format: cell-based
Method: (§5) The ability of compounds to suppress virus replication and thereby protect cells from HRV-induced CPE was measured using human embryo lung (MRC-5) and human epidermoid carcinoma of the mouth (KB) cells infected with HRV type 1A and HRV type 2, respectively. […] Test compounds were dissolved in 100% anhydrous dimethyl sulfoxide and serially diluted in tissue culture medium. The antiviral potency of the test compounds was assessed by exposing replicate tissue culture wells to a selected dilution series of between 6 and 7 compound concentrations in the presence of sufficient test virus to invoke significant CPE over the course of the assay. Control cells were also exposed to identical concentrations of compounds in the absence of virus or were infected with virus under the same conditions but in the absence of compounds. Compounds of established anti-HRV efficacy (enviroxime, ribavirin and pirodavir) were assayed by identical procedures in parallel to the test compounds. Tissue culture media were identically supplemented to maintain cell viability and support viral growth while suppressing bacterial growth over the period of the assay (supplements: 2% fetal calf serum, 0.01% sodium bicarbonate, 50 g/ml gentamicin, 5 M magnesium chloride, 10 mM of zinc chloride). […] At this time all infected cultures were examined by eye using a light microscope and CPE scored on a scale of 0 (no CPE) to 4 (maximum CPE). Uninfected treated cultures were similarly scored for cytotoxic effects (eg. cell enlargement, granularity, rounding, detachment). […] As an alternative to a CC50 value, cytoxicity in some cases was expressed as the Minimum Toxic Concentration (MTC).
(§6) Vital dye staining to measure cell viability was also used to quantify CPE and cytotoxic effects. […] After the assay had been scored by eye with the aid of a microscope, 100 1 of neutral red (NR) solution (0.34% NR in phosphate buffered saline (PBS)) was added to each well and mixed gently. The assays were returned to the 37° C. incubator for 2 hours to facilitate uptake of the NR by viable cells. The medium/NR mixture was then aspirated from the surface of the cells, which were washed twice with PBS. 0.25 ml of absolute ethanol containing Sorensen's citrate buffer I, was added with gentle mixing and the assays incubated at room temperature in the dark for 30 minutes to dissolve the NR. NR staining of viable cells was then quantified spectrophotometrically by measuring the colour density of the NR solution using a BioTek EL-309 microplate reader at dual wavelengths of 540 and 405 nm. The differences in the two readings were automatically determined to eliminate background errors. EC50 and CC50 values were determined by regression analysis matching compound concentration to NR staining. The XTT method involved use of a solution of XTT (1 mg/ml in culture media) which was added to each well and the plates incubated at 37° C. for 4 hours. XTT metabolism was measured spectrophotometrically using a similar method to that described above except that the dual wavelengths were 450 nm and 650 nm. EC50 and CC50 values were determined by regression analysis using a similar method to that described above.

HRV type 2 = assay: Inhibition of viral cytopathic effect (CPE), HRV type 2 in KB cells; format: cell-based, human rhinovirus; conditions: for EC50: Enterovirus, read-out: Activity on Rhinovirus Type 2 EC50
Method: as §5, §6

HRV type 1A = assay: Inhibition of viral cytopathic effect (CPE), HRV type 1A in MRC-5 cells; format: cell-based, human rhinovirus; conditions: for EC50: Enterovirus
Method: as §5, §6

[3] = Cytotoxicity in uninfected treated cultures (HRV type 2 assay); conditions: human
Method: as §1, §2, §3

[4] = Cytotoxicity in uninfected treated cultures (HRV type 1A assay); format: cell-based, human; conditions: human
Method: as §5, §6

Echo 21 = assay: Activity against Echo 21 in mammalian cell culture assay; format: cell-based
Method: (§4) Activity against Enteroviruses in Mammalian Cell Culture Assays Compounds 50 and 56 of the Invention were Tested Against Other Picornaviruses Using Similar cell based assays to those described in example 30 above and the results are shown in Table 6 below: […]

Coxsackie A21 = assay: Activity against Coxsackie A21 in mammalian cell culture assay; format: cell-based
Method: as §4

Enterovirus 70 = assay: Activity against Enterovirus 70 in mammalian cell culture assay; format: cell-based
Method: as §4

mammalian cell culture [5] = format: cell-based
Method: as §4

mammalian cell culture [6] = assay: in vitro; format: cell-based
Method: as §4

in vitro = format: cell-based
Method: as §4

[7] = HRV type 2, KB cells, concentration yielding 50% antiviral efficacy
[8] = HRV type 1A, MRC-5 cells, concentration yielding 50% antiviral efficacy
[9] = MRC5, HRV type 1A, MRC-5 cells, concentration yielding 50% antiviral efficacy, read-out: Activity on Rhinovirus Type 1A EC50
[10] = Enterovirus D; read-out: Activity on Enterovirus 70 EC50
[11] = MRC5, read-out: Activity on Rhinovirus Type 1A EC50

Row | SMILES | Activity on Rhinovirus Type 2 CC50 [1] | Activity on Rhinovirus Type 1A CC50 [2] | Activity on Rhinovirus Type 2 EC50 (HRV type 2; [7]) | Activity on Rhinovirus Type 1A EC50 (HRV type 1A; [8]) | CC50 [4] | also measured
1 | Cc1cc(-c2ccccc2)cc(C)c1OCCCc1cc(COCCOCCOCCOCc2cc(CCCOc3c(C)cc(-c4ccccc4)cc3C)on2)no1 [Compound 32, 1,8-bis-[5-[3-[2,6-dimethyl-4-phenylphenoxy]-propyl]-isoxazolyl-3-methyloxy]-3,6-dioxaoctane] | > 5 µg/mL | > 50 µg/mL | 0.1 µg/mL | 0.32 µg/mL |  | 
2 | Cc1cc(-c2ccccc2)cc(C)c1OCCCc1cc(COCCOCCOCCOCCNC(=O)Nc2ccc(Cc3ccc(NC(=O)NCCOCCOCCOCCOCc4cc(CCCOc5c(C)cc(-c6ccccc6)cc5C)on4)cc3)cc2)no1 [Compound 48] | > 5 µg/mL | 30.6 µg/mL | 0.6 µg/mL | 3.85 µg/mL |  | 
3 | COCc1cc(CCCOc2c(C)cc(-c3ccccc3)cc2C)on1 [Compound 6, 3-(methoxymethyl)-5-[3-[2,6-dimethyl-4-phenylphenoxy]-propyl]-isoxazole] |  |  |  |  | > 50 µg/mL | CC50 ([3]; KB cells, uninfected): > 5 µg/mL; EC50 (HRV type 2; [7]): < 0.005 µg/mL; EC50 (HRV type 1A; [9]): 0.16 µg/mL (≈ 0.455 µM)
4 | NC(=O)c1ncn([C@@H]2O[C@H](CO)[C@@H](O)[C@H]2O)n1 [Ribavirin] |  |  |  |  | 98.3 µg/mL (≈ 403 µM) | EC50 (Echo 21): 3 µg/mL (≈ 12.3 µM); EC50 (Coxsackie A21): > 100 µg/mL; EC50 (Enterovirus 70; [10]): > 100 µg/mL
5 | CC(=O)NCCOCCOCc1cc(CCCOc2c(C)cc(-c3ccccc3)cc2C)on1 [Compound 19] |  |  |  |  |  | CC50 [3]: 2 µg/mL (≈ 4.29 µM); CC50 ([4]; MRC-5 cells, no virus, CC50 or, in some cases, MTC, read-out: Activity on Rhinovirus Type 1A CC50): 5.79 µg/mL (≈ 12.4 µM); EC50 (HRV type 2; KB): < 0.005 µg/mL; EC50 (HRV type 1A; [11]): 0.87 µg/mL (≈ 1.86 µM)
6 | Cc1cc(CCCOc2c(C)cc(-c3noc(C(F)(F)F)n3)cc2C)on1 [Pleconaril, reference compound] |  |  |  |  | 10 µg/mL (≈ 26.2 µM) | EC50 (Echo 21): > 0.00016 µg/mL; EC50 (Coxsackie A21): 0.0033 µg/mL (≈ 0.00865 µM); CC50 ([3]; KB cells, uninfected): 0.5 µg/mL (≈ 1.31 µM); EC50 (HRV type 2; KB): 0.05 µg/mL (≈ 0.131 µM); EC50 (HRV type 1A; [11]): 0.02 µg/mL (≈ 0.0524 µM); EC50 (Enterovirus 70; Enterovirus D, read-out: Activity on Enterovirus 70 EC50): 0.28 µg/mL (≈ 0.734 µM)
7 | Cc1cc(-c2ccccc2)cc(C)c1OCCCc1cc(COCCOCCOCCOCCOCCOCCO)no1 [Compound 10] | 5 µg/mL | 19 µg/mL | 0.1 µg/mL | >50 µg/mL |  | 
8 | Cc1cc(-c2ccccc2)cc(C)c1OCCCc1cc(COCCOCCOCCOCCOCCOCCOCc2cc(CCCOc3c(C)cc(-c4ccccc4)cc3C)on2)no1 [Compound 34] | > 0.5 µg/mL | 10.9 µg/mL | 0.09 µg/mL | >50 µg/mL |  | 
9 | Cc1cc(-c2noc(C(F)(F)F)n2)cc(C)c1OCCCc1cc(COCCOCCOCCO)no1 [Compound 24] | > 1 µg/mL | 5.28 µg/mL | 0.04 µg/mL | 0.21 µg/mL |  | 
10 | Cc1cc(-c2noc(C(F)(F)F)n2)cc(C)c1OCCCc1cc(COCCOCCOCCOCCOCc2ccc(COCCOCCOCCOCCOCc3cc(CCCOc4c(C)cc(-c5noc(C(F)(F)F)n5)cc4C)on3)cc2)no1 [Compound 56] | 2 µg/mL | 10 µg/mL | 0.09 µg/mL | 1.8 µg/mL |  | Activity on Echo 21 EC50 (Echo 21): 0.0026 µg/mL; Activity on Coxsackie A21 EC50 (Coxsackie A21): 0.36 µg/mL; Activity on Coxsackie A21 CC50 (mammalian cell culture [5]): 11.1 µg/mL; Activity on Enterovirus 70 CC50 (mammalian cell culture [5]): > 50 µg/mL; Activity on Echo 21 CC50 (mammalian cell culture [6]): 7.93 µg/mL; Activity on Enterovirus 70 EC50 (Enterovirus 70; Enterovirus 70): 2.88 µg/mL
11 | Cc1cc(-c2noc(C(F)(F)F)n2)cc(C)c1OCCCc1cc(COCCOCCOCc2cc(CCCOc3c(C)cc(-c4noc(C(F)(F)F)n4)cc3C)on2)no1 [Compound 50, 1,5-bis-[5-[3-[2,6-dimethyl-4-(5-trifluoromethyl-1,2,4-oxadiazolyl)phenoxy]-propyl]-isoxazolyl-3-methyloxy]-3-oxapentane] | 2 µg/mL | 10 µg/mL | 0.02 µg/mL | 0.06 µg/mL |  | Activity on Echo 21 EC50 (Echo 21): 0.0006 µg/mL; Activity on Coxsackie A21 EC50 (Coxsackie A21): 0.35 µg/mL; Activity on Coxsackie A21 CC50 (mammalian cell culture [5]): > 50 µg/mL; Activity on Enterovirus 70 CC50 (mammalian cell culture [5]): > 50 µg/mL; Activity on Echo 21 CC50 (mammalian cell culture [6]): 46.3 µg/mL; Activity on Enterovirus 70 EC50 (Enterovirus 70; Enterovirus 70): >50 µg/mL
12 | Cc1cc(-c2ccccc2)cc(C)c1OCCCc1cc(COCCOCCOCCO)no1 [Compound 8] | 5 µg/mL | 22.7 µg/mL | 0.001 µg/mL | 0.59 µg/mL |  | 
13 | CC(C)S(=O)(=O)n1c(N)nc2ccc(/C(=N/O)c3ccccc3)cc21 [Enviroxime] |  |  |  |  | 0.49 µg/mL (≈ 1.37 µM) | EC50 (Echo 21): 0.03 µg/mL (≈ 0.0837 µM); EC50 (Coxsackie A21): 0.39 µg/mL (≈ 1.09 µM); CC50 (in vitro): 0.45 µg/mL (≈ 1.26 µM); EC50 (HRV type 1A; [9]): 0.006 µg/mL (≈ 0.0167 µM); EC50 (Enterovirus 70; [10]): 0.21 µg/mL (≈ 0.586 µM)
14 | CCOC(=O)c1ccc(OCCC2CCN(c3ccc(C)nn3)CC2)cc1 [Pirodavir, reference compound] |  |  |  |  | > 10 µg/mL | EC50 (HRV type 2; [7]): 0.003 µg/mL (≈ 0.00812 µM); EC50 (HRV type 1A; [9]): 0.02 µg/mL (≈ 0.0541 µM)

Reference: patent publication US7371755B1 (Biota Scientific Management Pty Ltd., priority 1999, dated 2008)
